The numbers were not newly measured in US20140011766A1, “ANTIMICROBIAL COMPOSITIONS AND METHODS” (priority 2012, published 2014), which cites them from elsewhere.

SMILES strings stand for the structures.

The test system of the data set is pathogens. The following applies: except for spores (specifically C. difficile spores).

Regarding `CCO` [Ethanol], the killing of pathogens is 99.99%.
